Earlier results on two compounds are cited in PMC3993928 (Journal of Medicinal Chemistry, 2014).

The test system of data set [1] is C57BL/6 mice. Conditions: mouse WWTW.
Data set [2] deals with T1, μ opioid receptor (MOPr) (Rattus norvegicus, UniProt P33535). Conditions: read-out: EC50 (nM), MOPr; [35S]GTPγS binding. For orientation: Binding of GTPγS marks nucleotide exchange on a G protein.
The target of data set [3] is T2, δ opioid receptor (DOPr) (Rattus norvegicus, UniProt P33533). The note with it: read-out: Ki (nM) DOPr; [3H]diprenorphine displacement.
T2 sequence (P33533 whole entry): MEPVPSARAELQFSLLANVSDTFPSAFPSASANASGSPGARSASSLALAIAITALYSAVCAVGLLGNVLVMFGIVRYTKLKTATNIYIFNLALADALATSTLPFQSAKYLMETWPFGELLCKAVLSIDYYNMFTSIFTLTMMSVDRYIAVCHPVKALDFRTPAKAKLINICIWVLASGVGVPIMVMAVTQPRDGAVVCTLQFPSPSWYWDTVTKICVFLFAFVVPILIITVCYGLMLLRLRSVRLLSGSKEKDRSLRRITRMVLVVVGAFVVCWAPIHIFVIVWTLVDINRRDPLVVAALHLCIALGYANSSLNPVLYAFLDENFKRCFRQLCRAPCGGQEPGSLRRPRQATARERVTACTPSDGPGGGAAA
In data set [4] the target is T3, κ opioid receptor (KOPr) (Homo sapiens, UniProt P41145). The note with it: relative to U69,593 at 10 μM; dns = does not stimulate.
T3 sequence (P41145 whole entry): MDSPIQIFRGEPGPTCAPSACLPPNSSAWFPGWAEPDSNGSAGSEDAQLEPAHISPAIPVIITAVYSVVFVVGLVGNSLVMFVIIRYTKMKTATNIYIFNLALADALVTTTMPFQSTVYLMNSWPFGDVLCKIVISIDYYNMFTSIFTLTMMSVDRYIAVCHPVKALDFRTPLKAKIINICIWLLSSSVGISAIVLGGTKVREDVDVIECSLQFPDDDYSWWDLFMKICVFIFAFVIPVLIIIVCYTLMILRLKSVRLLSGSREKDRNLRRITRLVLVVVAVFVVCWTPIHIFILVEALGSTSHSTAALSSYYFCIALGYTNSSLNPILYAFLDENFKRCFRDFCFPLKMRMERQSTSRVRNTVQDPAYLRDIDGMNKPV
Data set [5] concerns the target T3, κ opioid receptor (KOPr). The note with it: read-out: Ki (nM) KOPr; [3H]diprenorphine displacement.
Data set [6] addresses T2, δ opioid receptor (DOPr). The note with it: relative to DPDPE at 10 μM; dns = does not stimulate.
Data set [7] addresses T1, μ opioid receptor (MOPr). Conditions: read-out: Ki (nM) MOPr; [3H]diprenorphine displacement.

T1 sequence (P33535 whole entry): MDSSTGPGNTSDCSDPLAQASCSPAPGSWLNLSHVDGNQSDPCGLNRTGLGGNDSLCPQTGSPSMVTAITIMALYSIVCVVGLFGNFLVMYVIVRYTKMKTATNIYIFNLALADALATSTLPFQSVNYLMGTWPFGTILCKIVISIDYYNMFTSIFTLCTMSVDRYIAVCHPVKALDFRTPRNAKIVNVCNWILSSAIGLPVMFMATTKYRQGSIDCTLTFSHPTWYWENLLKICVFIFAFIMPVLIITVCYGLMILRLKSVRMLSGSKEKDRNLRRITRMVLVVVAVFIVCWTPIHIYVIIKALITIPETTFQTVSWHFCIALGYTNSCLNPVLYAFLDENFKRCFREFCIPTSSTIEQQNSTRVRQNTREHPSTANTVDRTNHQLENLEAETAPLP

For `CN1CC[C@]23c4c5ccc(O)c4O[C@H]2[C@@H](O)C=C[C@H]3[C@H]1C5` [morphine], the “duration of antinociceptive action relative to 4 (fold longer)” value in data set [1] is given as “approximately 2 fold”.

In general, EC50 refers to the concentration at which the effect is half-maximal. As usually defined, the Ki is the equilibrium dissociation constant of an inhibitor or competing ligand from its target. Consider “Dmt-c(SEtS)[DCys-Aci-DPen]OH [compound 1]”, for which, in data set [2], the EC50 is 4.7 ± 0.7 nM. The Ki in data set [3] was 2.3 ± 0.5 nM; in data set [5], 776 ± 149 nM; in data set [7], 2.4 ± 0.7 nM. Also, the “efficacy (% of control), KOPr” value in data set [4] is reported as “dns”. Further, the “efficacy (% of control), DOPr” value in data set [6] is given as “dns”.
